Earlier results as cited in patent US11224631B2, “Ready-to-use Carfilzomib compositions” (Orbicular Pharmaceutical Technologies Pvt. Ltd., priority 2017, dated 2022).

CC(C)C[C@H](NC(=O)[C@H](CCc1ccccc1)NC(=O)CN1CCOCC1)C(=O)N[C@@H](Cc1ccccc1)C(=O)N[C@@H](CC(C)C)C(=O)[C@@]1(C)CO1 [Carfilzomib]
Aqueous solubility: low aqueous solubility
